IC50 data for 14 compounds are collected here from US20260347364A1, “PYRAZOLO[4,3-F]QUINAZOLINE DERIVATIVES AS MODULATORS OF G12D MUTANT KRAS USEFUL FOR THE TREATMENT OF CANCER” (JAZZ PHARMACEUTICALS IRELAND LTD., priority 2023, published 2026).

One experiment addresses T1, KRAS G12D (Homo sapiens, UniProt P01116, G12D).
T1 construct: aa1-188 KRAS WT, HRAS WT, NRAS WT, or KRAS containing the G12D
Nature of the experiment: HTRF nucleotide exchange assay, KRAS G12D. Format: biochemical. The settings on record: HTRF nucleotide exchange assay (NEA), class symbols. In general terms: TR-FRET usually uses a lanthanide donor and a delayed reading to cut background.

In another experiment the target is T2, KRAS WT (Homo sapiens, UniProt P01116).
T2 construct: aa1-188 KRAS WT
T2 sequence (P01116 1-188 isoform P01116-2): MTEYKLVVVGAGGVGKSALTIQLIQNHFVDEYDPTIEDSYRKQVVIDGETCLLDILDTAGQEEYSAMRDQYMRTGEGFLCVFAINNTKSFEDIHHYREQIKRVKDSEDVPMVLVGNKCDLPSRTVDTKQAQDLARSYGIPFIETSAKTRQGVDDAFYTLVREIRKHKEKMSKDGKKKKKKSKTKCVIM
Nature of the experiment: HTRF nucleotide exchange assay, KRAS WT. As to conditions: HTRF nucleotide exchange assay (NEA), class symbols. Format: biochemical.

T1 sequence (P01116 1-188 isoform P01116-2 G12D): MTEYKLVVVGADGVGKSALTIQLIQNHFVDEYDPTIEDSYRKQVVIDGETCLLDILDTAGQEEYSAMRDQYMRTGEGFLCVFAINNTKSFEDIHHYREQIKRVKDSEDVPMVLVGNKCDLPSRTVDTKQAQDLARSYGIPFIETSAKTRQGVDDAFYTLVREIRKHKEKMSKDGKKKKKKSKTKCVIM

In the case of `CCc1c(F)ccc2cc(O)cc(-c3c(F)c4nc(OCC5(CN(C)CC)CC5)nc(N5CCOCC(C)(O)C5)c4c4cn(C)nc34)c12` (stereo not shown) [Example 212, 4-[4-(8-ethyl-7-fluoro-3-hydroxy-1-naphthyl)-7-[[1-[[ethyl(methyl)amino]methyl]cyclopropyl]methoxy]-5-fluoro-2-methyl-pyrazolo[4,3-f]quinazolin-9-yl]-6-methyl-1,4-oxazepan-6-ol], the IC50 against KRAS G12D and on KRAS WT was ≤ 10 nM each time.
Turning to `CCc1c(F)ccc2cc(O)cc(-c3c(F)c4nc(OCC5(CN6CCC(CC#N)CC6)CC5)nc(N5CCOCC(C)(O)C5)c4c4cn(C)nc34)c12` (stereo not shown) [Example 225, 2-[1-[[1-[[4-(8-ethyl-7-fluoro-3-hydroxy-1-naphthyl)-5-fluoro-9-(6-hydroxy-6-methyl-1,4-oxazepan-4-yl)-2-methyl-pyrazolo[4,3-f]quinazolin-7-yl]oxymethyl]cyclopropyl]methyl]-4-piperidyl]acetonitrile], the IC50 on KRAS G12D and against KRAS WT was ≤ 10 nM each time.
As to `CCc1c(F)ccc2cc(O)cc(-c3cc4nc(OC[C@@]56CCCN5C[C@H](F)C6)nc(N5CCC(C)C(O)C5)c4c4cn(C)nc34)c12` (stereo partly drawn) [Example 133, 1-[4-(8-ethyl-7-fluoro-3-hydroxy-1-naphthyl)-2-methyl-7-[[(2R,8S)-2-fluoro-1,2,3,5,6,7-hexahydropyrrolizin-8-yl]methoxy]pyrazolo[4,3-f]quinazolin-9-yl]-4-methyl-piperidin-3-ol], the values for the IC50 on KRAS G12D and against KRAS WT were 10 to 100 nM and 100 to 10000 nM, respectively.
For `CCc1c(F)ccc2cccc(-c3cc4nc(OC[C@@]56CCCN5C[C@H](F)C6)nc(N5CCCn6nc(C(=O)N(C)C)cc6C5)c4c4cn(C)nc34)c12` [Example 63, 5-[4-(8-ethyl-7-fluoro-1-naphthyl)-2-methyl-7-[[(2R,8S)-2-fluoro-1,2,3,5,6,7-hexahydropyrrolizin-8-yl]methoxy]pyrazolo[4,3-f]quinazolin-9-yl]-N,N-dimethyl-4,6,7,8-tetrahydropyrazolo[1,5-a][1,4]diazepine-2-carboxamide] the same measures were ≤ 10 nM and 10 to 100 nM.
Take `CCc1c(F)ccc2cc(O)cc(-c3c(F)c4nc(OCC5(CF)COC5)nc(N5CCCn6nc(C(=O)N(C)C)cc6C5)c4c4cn(C)nc34)c12` [Example 206, 5-[4-(8-ethyl-7-fluoro-3-hydroxy-1-naphthyl)-5-fluoro-7-[[3-(fluoromethyl)oxetan-3-yl]methoxy]-2-methyl-pyrazolo[4,3-f]quinazolin-9-yl]-N,N-dimethyl-4,6,7,8-tetrahydropyrazolo[1,5-a][1,4]diazepine-2-carboxamide]: the IC50 (usually the concentration at which inhibition is half-maximal) against KRAS G12D is ≤ 10 nM; against KRAS WT, 10 to 100 nM.
For `CCc1c(F)ccc2cc(O)cc(-c3cc4nc(OC[C@@]56CCCN5C[C@H](F)C6)nc(N5CCCC5CO)c4c4cn(C)nc34)c12` (stereo partly drawn) [Example 183, 5-ethyl-6-fluoro-4-[9-[2-(hydroxymethyl)pyrrolidin-1-yl]-2-methyl-7-[[(2R,8S)-2-fluoro-1,2,3,5,6,7-hexahydropyrrolizin-8-yl]methoxy]pyrazolo[4,3-f]quinazolin-4-yl]naphthalen-2-ol], the half-inhibitory concentration (IC50) on KRAS G12D and against KRAS WT was ≤ 10 nM throughout.
Regarding `CN(C)C(=O)c1cc2n(n1)CCCN(c1nc(OC[C@@]34CCCN3C[C@H](F)C4)nc3cc(-c4ccc(F)c5sc(N)c(C#N)c45)c4nn(C)cc4c13)C2` [Example 81, 5-[4-(2-amino-3-cyano-7-fluoro-benzothiophen-4-yl)-7-[[(2R,8S)-2-fluoro-1,2,3,5,6,7-hexahydropyrrolizin-8-yl]methoxy]-2-methyl-pyrazolo[4,3-f]quinazolin-9-yl]-N,N-dimethyl-4,6,7,8-tetrahydropyrazolo[1,5-a][1,4]diazepine-2-carboxamide], the results for the IC50 at KRAS G12D and against KRAS WT were ≤ 10 nM and 10 to 100 nM, respectively.
For the compound `CCc1c(F)ccc2cc(O)cc(-c3c(F)c4nc(OCC5(CN6CC(C)OC(C)C6)CC5)nc(N5CCOCC(C)(O)C5)c4c4cn(C)nc34)c12` (stereo not shown) [Example 246, 4-[7-[[1-[(2,6-dimethylmorpholin-4-yl)methyl]cyclopropyl]methoxy]-4-(8-ethyl-7-fluoro-3-hydroxy-1-naphthyl)-5-fluoro-2-methyl-pyrazolo[4,3-f]quinazolin-9-yl]-6-methyl-1,4-oxazepan-6-ol], the IC50 at KRAS G12D and against KRAS WT was ≤ 10 nM throughout.
For `CCc1c(F)ccc2cc(O)cc(-c3c(F)c4nc(OCC5(CN6CCCCC6)CC5)nc(N5CCOCC(C)(O)C5)c4c4cn(C)nc34)c12` (stereo not shown) [Example 172, 4-[4-(8-ethyl-7-fluoro-3-hydroxy-1-naphthyl)-5-fluoro-2-methyl-7-[[1-(1-piperidylmethyl)cyclopropyl]methoxy]pyrazolo[4,3-f]quinazolin-9-yl]-6-methyl-1,4-oxazepan-6-ol], the concentration for half-maximal inhibition (IC50) at KRAS G12D and on KRAS WT was ≤ 10 nM throughout.
Turning to `CCc1c(F)ccc2cc(O)cc(-c3c(C)c4nc(OC[C@@H]5CCN5C)nc(N5CCOCC(C)(O)C5)c4c4cn(C)nc34)c12` (stereo partly drawn) [Example 143, 4-[4-(8-ethyl-7-fluoro-3-hydroxy-1-naphthyl)-2,5-dimethyl-7-[[(2S)-1-methylazetidin-2-yl]methoxy]pyrazolo[4,3-f]quinazolin-9-yl]-6-methyl-1,4-oxazepan-6-ol], the IC50 against KRAS G12D and at KRAS WT was ≤ 10 nM in each case.
For `CCc1c(F)ccc2cc(O)cc(-c3cc4nc(OC[C@@]56CCCN5C[C@H](F)C6)nc(N5CCOCC(O)(C(F)(F)F)C5)c4c4cn(C)nc34)c12` (stereo partly drawn) [Example 123, 4-[4-(8-ethyl-7-fluoro-3-hydroxy-1-naphthyl)-2-methyl-7-[[(2R,8S)-2-fluoro-1,2,3,5,6,7-hexahydropyrrolizin-8-yl]methoxy]pyrazolo[4,3-f]quinazolin-9-yl]-6-(trifluoromethyl)-1,4-oxazepan-6-ol], the IC50 on KRAS G12D and against KRAS WT was 10 to 100 nM each time.
Turning to `CCc1c(F)ccc2cc(O)cc(-c3cc4nc(OC[C@@]56CCCN5C[C@H](F)C6)nc(N5CC6CCC(C5)C6C#N)c4c4cn(C)nc34)c12` (stereo partly drawn) [Example 210, 3-[4-(8-ethyl-7-fluoro-3-hydroxy-1-naphthyl)-7-[[(2R,8S)-2-fluoro-1,2,3,5,6,7-hexahydropyrrolizin-8-yl]methoxy]-2-methyl-pyrazolo[4,3-f]quinazolin-9-yl]-3-azabicyclo[3.2.1]octane-8-carbonitrile], the IC50 against KRAS G12D and on KRAS WT was 10 to 100 nM each time.
As for `Cn1cc2c(n1)c(-c1cc(O)cc3ccc(F)c(F)c13)cc1nc(OC[C@@]34CCCN3C[C@H](F)C4)nc(N3CCCOCC3)c12` [Example 39], the IC50 against KRAS G12D and against KRAS WT was 10 to 100 nM throughout.
In the case of `CCc1c(F)ccc2cc(O)cc(-c3c(C)c4nc(OCC5(C)CC(OC)CN5)nc(N5CCOCC(C)(O)C5)c4c4cn(C)nc34)c12` (stereo not shown) [Example 137, 4-[4-(8-ethyl-7-fluoro-3-hydroxy-1-naphthyl)-7-[(4-methoxy-2-methyl-pyrrolidin-2-yl)methoxy]-2,5-dimethyl-pyrazolo[4,3-f]quinazolin-9-yl]-6-methyl-1,4-oxazepan-6-ol], the 50% inhibitory concentration (IC50) on KRAS G12D and on KRAS WT was ≤ 10 nM throughout.
